Bridges are numbered along the chain shown (N, C = ends). Where no end group is shown, it is not given here. [ ]: non-standard residue; d: D form. pGlu = O=C1CC[C@@H](C(=O)O)N1
System: prostaglandin E2-induced hyperalgesia
Experiment: rat paw pressure test, prostaglandin E2-induced hyperalgesia
Details: for analgesic activity: synthetic peptides compared with natural ENPAK-k, similar conditions; for pain threshold, FM (g) ± S.E.M: 3 h after PGE2 100 ng/paw i.pl.
[1] = oral route, reversal of PGE2-induced hyperalgesia, CurveExpert 1.3

With “SEQ ID NO: 6: one of 4 possible sequences pGlu-Phe-Ser-Pro-Glu-Asn-Cys-Lys/Gln-Gly-Glu-Ser-Lys/Gln-Pro-Cys; synthetic peptide (XFSPENCKGESQPC; Synthetically generated peptide)” the analgesic activity was “inactivity”.

“SEQ ID NO: 3: one of 4 possible sequences pGlu-Phe-Ser-Pro-Glu-Asn-Cys-Lys/Gln-Gly-Glu-Ser-Lys/Gln-Pro-Cys; modified synthetic peptide (XFSPENCQGESKPC; Synthetically generated peptide)” was tested, and the “pain threshold, FM (grams) ± S.E.M.” value (p.o., 2 ml of solution (peptide diluted in 11 ml of saline), 3 hours after PGE2 100 ng/paw i.pl.) was 110 ± 2.74 grams, the “pain threshold, IM (grams) ± S.E.M.” value (p.o., 2 ml of solution (peptide diluted in 11 ml of saline), before PGE2) was 76 ± 1.00 grams and the analgesic activity was “demonstrated analgesic activity”.

With `CN1CC[C@]23c4c5ccc(O)c4O[C@H]2[C@@H](O)C=C[C@H]3[C@H]1C5` [Morphine, reference compound] the “pain threshold, FM (g) ± S.E.M” value (morphine 0.004 μg/kg p.o.) was 69 ± 1.87 g, the “pain threshold, IM (g) ± S.E.M.” value (morphine 0.004 μg/kg p.o., before PGE2) was 77 ± 1.22 g and the “pain threshold, FM (g) ± S.E.M” value (morphine 0.2 μg/kg p.o.) was 70 ± 1.58 g. For the same molecule, the “pain threshold, IM (g) ± S.E.M.” value (morphine 0.2 μg/kg p.o., before PGE2) was 76 ± 1.87 g, the “pain threshold, FM (g) ± S.E.M” value (morphine 1 μg/kg p.o.) was 85 ± 1.58 g and the “pain threshold, IM (g) ± S.E.M.” value (morphine 1 μg/kg p.o., before PGE2) was 78 ± 1.22 g. The “pain threshold, FM (g) ± S.E.M” value (morphine 5 μg/kg p.o.) was 109 ± 1.87 g, the “pain threshold, IM (g) ± S.E.M.” value (morphine 5 μg/kg p.o., before PGE2) was 78 ± 1.22 g and the 50% effective dose [1] was 0.05515 µg/kg. For the same molecule, the 90% effective dose [1] was 0.3267 µg/kg.

With “SEQ ID NO: 7: one of 4 possible sequences pGlu-Phe-Ser-Pro-Glu-Asn-Cys-Lys/Gln-Gly-Glu-Ser-Lys/Gln-Pro-Cys; synthetic peptide ([pGlu]FSPENCKGESKPC; disulfide 7-14)” the analgesic activity was “inactivity”.

From patent publication US9109041B2, “Analog compounds of analgesic peptides derived from the venom of crotalus durissus terrificus snakes, their uses, compositions, methods of preparation and purification” (priority 2004, dated 2015)
